Reference: patent US9526720B2, “Modulators of hepatic lipoprotein metabolism” (The Broad Institute, Inc., priority 2012, dated 2016)
Entries after “also recorded” stand apart in the source; their conditions may differ.

Experiments:
MTTP = assay: qPCR MTTP expression in HepG2 cells; type: cell-based, human; conditions: 28 hour time course
Procedure: (§1) Further analysis of the expression levels of various proteins in the cholesterol and triglyceride biosynthetic pathways in response to TRIB1 inducer treatment was performed. In particular, transcript levels of additional lipoprotein metabolism pathway proteins SCAP, SREBF1, SREBF2, HMGCR, HMGCS, SCD1, FASN and MTTP were assessed by qPCR, along with TRIB1, LDLR, and PCSK9. The gene expression profile for the same subset of genes was also assessed after treatment with the statin atorvastatin (Lipitor), commonly used in therapy for hypercholesterolemia and other cardiovascular diseases.
The kinetics of the modulation of TRIB1, LDLR, PCSK9 and MTTP gene expression after treatment by select TRIB1 inducer compounds was monitored by qPCR analysis (FIG. 4). RNA was extracted from cells at various timepoints over 28 hours of treatment (0, 2, 4, 6, 8, 24, 28 hours). Specifically, compounds 12a and 14a induced transcriptional responses over time similar to those produced by berberine, a plant alkaloid used in Chinese medicine. […] Both compound 12a and compound 14a induce TRIB1 and LDLR and repress PCSK9 and MTTP expression with similar kinetics and similar fold change as berberine Importantly, both compounds induce these gene expression changes at much lower concentrations than berberine. […]

APOC3 = assay: Transcriptional profiling of APOC3 gene in HepG2 cells; type: cell-based, human; conditions: 10 μM, 24 hours
Description: Expression of APOC3 is associated with increased levels of triglycerides in plasma and carriers of APOC3 gene null mutation have low levels of triglycerides and are protected from cardiovascular disease (Pollin et al., Science, 322:1702, 2008).

LDLR [1] = assay: qPCR LDLR expression in HepG2 cells; type: cell-based, human; conditions: for induction of LDLR expression in combination with simvastatin (in words): overnight simvastatin, then compound
HMGCS = assay: qPCR HMGCS transcript level in HepG2 cells; type: cell-based; conditions: Homo sapiens, 20 h
Procedure: (§2) In the primary screen, HepG2 cells were plated in 384-well plates at 2000 cells per well and incubated for 20 hours with each compound in duplicate at 10 microM concentration. Then RNA was isolated, reverse-transcribed to cDNA, and stored at −80° C. Expression levels of TRIB1 and other target genes, such as SORT1 and PCSK9, were determined by quantitative PCR. Relative gene expression level was normalized to expression of the housekeeping gene, GAPDH. A “hit” was defined as those compounds that caused a greater than 2-fold increase in relative target gene expression when normalized to GAPDH expression, compared to DMSO-treated control. Using these criteria, 130 hits were identified for TRIB1 (0.8% hit rate).
as §1

PCSK9 [2] = assay: qPCR PCSK9 expression in HepG2 cells; type: cell-based, human; conditions: for PCSK9 expression (in words): qPCR
Procedure: as §2, §1
(§3) The kinetics of the modulation of TRIB1, LDLR, PCSK9 and MTTP gene expression after treatment by select TRIB1 inducer compounds was monitored by qPCR analysis (FIG. 4). RNA was extracted from cells at various timepoints over 28 hours of treatment (0, 2, 4, 6, 8, 24, 28 hours). Specifically, compounds 12a and 14a induced transcriptional responses over time similar to those produced by berberine, a plant alkaloid used in Chinese medicine. […] Both compound 12a and compound 14a induce TRIB1 and LDLR and repress PCSK9 and MTTP expression with similar kinetics and similar fold change as berberine Importantly, both compounds induce these gene expression changes at much lower concentrations than berberine. […] This increased potency indicates the potential therapeutic efficacy of such compounds for treatment of cardiovascular diseases, particularly hypercholesterolemia and related conditions.

ApoB = assay: ELISA of secreted ApoB in HepG2 cells; type: cell-based, human
Procedure: (§4) Additional secondary assays were performed in HepG2 cells to further characterize the cellular response to treatment with select confirmed TRIB1 inducer hits. The results of the ELISA, CTG, and qPCR secondary assays are summarized in Table B. For all secondary assays, the experiments were performed using powders of freshly purified compounds.
(§5) To further characterize the relationship of TRIB1 induction and PCSK9 reduction, ELISAs were performed to measure the levels of secreted ApoB, PCSK9, and LDLR. […] As predicted treatment with TRIB1 inducer hits caused a decrease in ApoB levels detected by ELISA. In parallel effort, 3200 BIOA and NATP compounds were screened for PCSK9 expression inhibitors. Hits were defined as inducing greater than 3-fold downregulation of PCSK9, and 3.8% of the screened compounds were confirmed as hits. […] In further experiments, a strong correlation was confirmed between TRIB1 induction and PCSK9 repression in DOS Collection hits. ELISA analysis confirmed that treatment with TRIB1 inducers reduced the PCSK9 protein levels. LDLR protein levels were also analyzed by ELISA to determine whether compounds that modulate both TRIB1 and PCSK9 had any effect on LDLR protein levels.

PCSK9 [3] = assay: ELISA of secreted PCSK9 protein in HepG2 cells; type: cell-based, human
Procedure: as §4, §5

LDLR [4] = assay: ELISA of LDLR protein in HepG2 cells; type: cell-based, human
Procedure: as §4, §5

SCD1 = assay: qPCR SCD1 transcript level in HepG2 cells; type: cell-based; conditions: Homo sapiens, 20 h
Procedure: as §2, §1

SREBF1 = assay: qPCR SREBF1 transcript level in HepG2 cells; type: cell-based, human
Procedure: as §2, §1

SCAP = assay: qPCR SCAP transcript level in HepG2 cells; type: cell-based, human
Procedure: as §2, §1

HMGCR = assay: qPCR HMGCR transcript level in HepG2 cells; type: cell-based, human
Procedure: as §2, §1

TRIB1 [5] = assay: qPCR TRIB1 expression in HepG2 cells; type: cell-based, human; conditions: for TRIB1 expression (in words) / potency relative to berberine: HepG2; for TRIB1 expression (in words): qPCR; for potency relative to berberine: TRIB1, LDLR, PCSK9 and MTTP gene expression changes
Procedure: as §2, §1, §3

FASN = assay: qPCR FASN transcript level in HepG2 cells; type: cell-based; conditions: Homo sapiens, 20 h
Procedure: as §2, §1

SREBF2 = assay: qPCR SREBF2 transcript level in HepG2 cells; type: cell-based, human
Procedure: as §2, §1

HepG2 cells [6] = assay: BODIPY-FL LDL uptake in HepG2 cells (high content microscopy); type: cell-based, human; conditions: treated 20 hours; BODIPY-FL LDL uptake monitored 5 hours
Procedure: TRIB1 inducers increase the rate of LDL uptake. HepG2 cells grown under standard culture conditions (10% FBS) were treated for 20 hours with compounds 2a, 14a and 12a at indicated concentrations and the uptake of BODIPY-FL conjugated LDL particles was monitored for 5 hours using high content microscopy. To control for regulation of LDL uptake by cholesterol, cells were grown in media depleted for (0.5% LPDS—lipoprotein deficient serum) or supplemented with cholesterol (0.5% LPDS plus cholesterol ([…] cholesterol and […] 25-OH cholesterol)).

HepG2 cells [7] = assay: Cell Titer Glo (CTG) cell viability assay; type: cell-based, human; design: key: A: Increase <2-fold; B: Increase >2-fold; X: Decrease <2-fold; Y: Decrease >2-fold; No significant change; conditions: cell viability (ATP)
Procedure: Cell viability was determined using a Cell Titer Glo (CTG) assay ([…]) after treatment with TRIB1 inducer compounds. In this assay, the number of viable cells in culture is based on quantitation of ATP, which indicates metabolically active cells. Addition of the reagent results in cell lysis and generation of a luminescent signal proportional to the amount of ATP present, which is directly proportional to the number of viable, metabolically active cells present in culture. Most TRIB1 inducer compounds had no significant effect on cell viability.

LDLR [8] = assay: qPCR LDLR expression in HepG2 cells; type: cell-based, human; conditions: for LDLR expression (in words): HepG2, qPCR
Procedure: as §2, §1, §3

TRIB1 [9] = assay: qPCR TRIB1 expression in HepG2 cells; type: cell-based; conditions: Homo sapiens, HepG2; induction of TRIB1 and LDLR transcript levels; read-out: half maximal effective concentration (EC50)
[10] = Homo sapiens, 20 h, HepG2 cells
[11] = at the maximal dose tested, HepG2

CN(C)c1ccc2c(c1)[C@@H]1C[C@@H](CC(=O)NCc3ccc(Oc4ccccc4)cc3)O[C@@H](CO)[C@@H]1O2 [Compound 12a]
MTTP expression (in words) (MTTP): repress
expression of APOC3 gene (in words) (APOC3): down regulates
induction of LDLR expression in combination with simvastatin (in words) (LDLR [1]): additive effect
fold induction at 10 µM (HMGCS): > 2
PCSK9 expression (in words) (PCSK9 [2]; HepG2): repress; also recorded: strongly reduced
fold induction at 10 µM (PCSK9 [2]; [10]): > 2
inhibition of expression of PCSK9 mRNA (PCSK9 [2]; [11]): 70%
expression of PCSK9 stimulated by pretreatment with atorvastatin (in words) (PCSK9 [2]): potently reduced
secretion of apoB into the media / ApoB levels (in words) (ApoB; HepG2): inhibited secretion of apoB
ELISA ApoB (ApoB; HepG2 cells): Y (Decrease >2-fold)
ELISA PCSK9 (PCSK9 [3]; HepG2 cells): Y (Decrease >2-fold)
inhibition of secretion of PCSK9 protein into the media (PCSK9 [3]; [11]): 70%
increase of the LDL receptor protein in the cell (LDLR [4]; HepG2): 3 fold
ELISA LDLR (LDLR [4]; HepG2 cells): B (Increase >2-fold)
fold induction at 10 µM (SCD1): > 2
qPCR SREBF1 (SREBF1): Y (Decrease >2-fold)
qPCR SCAP (SCAP): X (Decrease <2-fold)
qPCR HMGCR (HMGCR): Y (Decrease >2-fold)
TRIB1 expression (in words) (TRIB1 [5]): induce; also recorded: robustly induced
fold induction at 10 µM (TRIB1 [5]; [10]): < 2
potency relative to berberine (TRIB1 [5]): 5 fold
fold induction at 10 µM (FASN): > 2
qPCR SREBF2 (SREBF2): Y (Decrease >2-fold)
rate of LDL uptake (in words) (HepG2 cells [6]): robust increase
CTG (HepG2 cells [7]): N
LDLR expression (in words) (LDLR [8]): induction of LDLR expression; also recorded: induce; also recorded: robustly induced
qPCR LDLR (LDLR [8]; HepG2 cells): A (Increase <2-fold)

CN1C(=O)c2cc(NC(=O)c3ccc(C(F)(F)F)cc3)ccc2OC[C@@H]2O[C@H](CC(=O)NC3Cc4ccccc4C3)CC[C@@H]21 [Compound 14a]
MTTP expression (in words) (MTTP): repress
LDLR signal over the non-depleted control (LDLR [1]; 2.5 μM, 0.5% LPDS, 24 h): 9 fold
induction of LDLR expression in combination with simvastatin (in words) (LDLR [1]): additive effect
decrease of PCSK9 mRNA below the level induced by cholesterol starvation (PCSK9 [2]; 2.5 μM, 0.5% LPDS, 24 h): 3.8 fold
PCSK9 expression (in words) (PCSK9 [2]; HepG2): repress; also recorded: strongly reduced
expression of PCSK9 stimulated by pretreatment with atorvastatin (in words) (PCSK9 [2]): potently reduced
EC50 (ApoB; Homo sapiens, HepG2, 24 h, read-out: ELISA 24 Hr (EC50 uM) ApoB decrease): 1.1 to 2 µM
EC50 (PCSK9 [3]; Homo sapiens, HepG2, 24 h, read-out: ELISA 24 Hr (EC50 uM) PCSK9 decrease): 0.51 to 1 µM
EC50 (TRIB1 [9]): < 1000 nM
TRIB1 expression (in words) (TRIB1 [5]): induce; also recorded: robustly induced
potency relative to berberine (TRIB1 [5]): 10 fold
rate of LDL uptake (in words) (HepG2 cells [6]): robust increase
LDLR expression (in words) (LDLR [8]): induce; also recorded: robustly induced
EC50 (LDLR [8]; Homo sapiens, HepG2, 6 h, read-out: qPCR 6Hr (EC50 uM) LDLR up-regulation): 0.51 to 1 µM
